In ChEMBL document CHEMBL1201862, “PubChem BioAssay data set” (2004):
Active and inactive are the calls of the source.

What was measured:
Assay type in all cases: functional
[1] = target: T1, Sentrin-specific protease 8 (Homo sapiens, UniProt Q96LD8); assay: inhibition of human SENP8 cleavage activity – biochemical, luminescence, SAR follow-up (AID 504501)
T1 sequence (Q96LD8 whole entry): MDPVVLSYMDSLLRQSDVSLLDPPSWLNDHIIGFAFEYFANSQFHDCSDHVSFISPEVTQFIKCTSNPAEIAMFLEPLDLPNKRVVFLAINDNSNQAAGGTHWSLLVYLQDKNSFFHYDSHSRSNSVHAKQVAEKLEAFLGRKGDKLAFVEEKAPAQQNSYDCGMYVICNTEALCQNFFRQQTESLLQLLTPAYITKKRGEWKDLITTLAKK

[2] = target: T1, Sentrin-specific protease 8
[3] = target: T2, Sentrin-specific protease 6 (Homo sapiens, UniProt Q9GZR1); assay: SAR Analysis of small molecule inhibitors of Sentrin-specific protease 6 (SENP6) using a Luminescent assay. [Related pubchem assays (depositor defined):AID2582, AID2599]
T2 sequence (Q9GZR1 whole entry): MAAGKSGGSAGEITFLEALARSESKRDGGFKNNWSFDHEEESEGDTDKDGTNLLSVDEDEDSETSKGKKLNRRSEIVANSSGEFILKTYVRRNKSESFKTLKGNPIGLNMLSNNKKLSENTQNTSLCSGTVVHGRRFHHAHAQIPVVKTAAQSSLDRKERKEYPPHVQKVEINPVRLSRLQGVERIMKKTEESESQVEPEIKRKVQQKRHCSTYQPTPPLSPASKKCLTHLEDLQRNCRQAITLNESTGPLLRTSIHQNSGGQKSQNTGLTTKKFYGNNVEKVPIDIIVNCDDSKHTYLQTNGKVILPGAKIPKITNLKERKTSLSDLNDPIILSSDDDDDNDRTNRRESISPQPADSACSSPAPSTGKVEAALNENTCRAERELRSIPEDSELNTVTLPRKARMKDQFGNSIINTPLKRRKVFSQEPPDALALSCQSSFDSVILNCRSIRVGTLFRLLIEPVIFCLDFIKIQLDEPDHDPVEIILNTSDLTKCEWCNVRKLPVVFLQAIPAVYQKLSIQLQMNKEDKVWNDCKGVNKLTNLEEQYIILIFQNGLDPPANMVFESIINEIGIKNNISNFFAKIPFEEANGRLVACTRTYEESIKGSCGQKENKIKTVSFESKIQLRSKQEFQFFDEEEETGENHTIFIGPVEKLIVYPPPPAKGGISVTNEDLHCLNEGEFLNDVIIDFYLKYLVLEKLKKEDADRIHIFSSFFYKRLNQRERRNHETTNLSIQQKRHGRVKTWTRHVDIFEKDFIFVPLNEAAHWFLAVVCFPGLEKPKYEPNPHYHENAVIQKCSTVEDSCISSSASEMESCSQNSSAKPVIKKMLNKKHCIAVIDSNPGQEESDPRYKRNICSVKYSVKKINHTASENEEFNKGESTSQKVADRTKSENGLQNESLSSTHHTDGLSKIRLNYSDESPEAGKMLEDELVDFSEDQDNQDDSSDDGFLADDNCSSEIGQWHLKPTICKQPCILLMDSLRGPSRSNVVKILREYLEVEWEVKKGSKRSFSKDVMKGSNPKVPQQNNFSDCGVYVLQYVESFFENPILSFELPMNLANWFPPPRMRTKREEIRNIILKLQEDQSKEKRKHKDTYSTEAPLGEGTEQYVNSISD

SUMO-activating enzyme = SUMO-activating enzyme (Homo sapiens, UniProt Q9UBT2); assay: blockers of UBC9-mediated SUMO conjugation – biochemical, AlphaScreen, SUMOylation inhibitor project, confirmation (AID 2018)
[4] = target: Dual specificity protein kinase CLK4 (Homo sapiens, UniProt Q9HAZ1)
[5] = target: Inhibitor of nuclear factor kappa-B kinase subunit epsilon (Homo sapiens, UniProt Q14164); assay: Navigating the Kinome. Panel member name: IKBKE
[6] = target: Tyrosine-protein kinase JAK3 (Homo sapiens, UniProt P52333)
[7] = target: Glycogen synthase kinase-3 beta (Homo sapiens, UniProt P49841);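 note: value comes from a broad kinome profiling panel, with GSK3B as the panel member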
[8] = target: ALK tyrosine kinase receptor (Homo sapiens, UniProt Q9UM73);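 note: ALK tested as one member of a kinase panel screen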
[9] = target: Mitogen-activated protein kinase kinase kinase kinase 2 (Homo sapiens, UniProt Q12851);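 note: measured as one member of a kinome-wide kinase panel, with MAP4K2 as the panel entry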
[10] = target: Leukocyte tyrosine kinase receptor (Homo sapiens, UniProt P29376); assay: Navigating the Kinome. Panel member name: LTK
[11] = target: Tyrosine-protein kinase JAK2 (Homo sapiens, UniProt O60674);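 note: JAK2 tested as one member of a kinase panel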
[12] = target: Leucine-rich repeat serine/threonine-protein kinase 2 (Homo sapiens, UniProt Q5S007);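 note: value from a broad kinome-wide panel profiling study in which LRRK2 was one of the kinases tested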
[13] = target: Dual specificity mitogen-activated protein kinase kinase 1 (Homo sapiens, UniProt Q02750); assay: Navigating the Kinome. Panel member name: MAP2K1
[14] = target: Tyrosine-protein kinase receptor TYRO3 (Homo sapiens, UniProt Q06418);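 note: TYRO3 value obtained as one member of a kinome-wide profiling panel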
[15] = target: Serine/threonine-protein kinase TAO1 (Homo sapiens, UniProt Q7L7X3)
Sequence of Serine/threonine-protein kinase TAO1 (Q7L7X3 whole entry): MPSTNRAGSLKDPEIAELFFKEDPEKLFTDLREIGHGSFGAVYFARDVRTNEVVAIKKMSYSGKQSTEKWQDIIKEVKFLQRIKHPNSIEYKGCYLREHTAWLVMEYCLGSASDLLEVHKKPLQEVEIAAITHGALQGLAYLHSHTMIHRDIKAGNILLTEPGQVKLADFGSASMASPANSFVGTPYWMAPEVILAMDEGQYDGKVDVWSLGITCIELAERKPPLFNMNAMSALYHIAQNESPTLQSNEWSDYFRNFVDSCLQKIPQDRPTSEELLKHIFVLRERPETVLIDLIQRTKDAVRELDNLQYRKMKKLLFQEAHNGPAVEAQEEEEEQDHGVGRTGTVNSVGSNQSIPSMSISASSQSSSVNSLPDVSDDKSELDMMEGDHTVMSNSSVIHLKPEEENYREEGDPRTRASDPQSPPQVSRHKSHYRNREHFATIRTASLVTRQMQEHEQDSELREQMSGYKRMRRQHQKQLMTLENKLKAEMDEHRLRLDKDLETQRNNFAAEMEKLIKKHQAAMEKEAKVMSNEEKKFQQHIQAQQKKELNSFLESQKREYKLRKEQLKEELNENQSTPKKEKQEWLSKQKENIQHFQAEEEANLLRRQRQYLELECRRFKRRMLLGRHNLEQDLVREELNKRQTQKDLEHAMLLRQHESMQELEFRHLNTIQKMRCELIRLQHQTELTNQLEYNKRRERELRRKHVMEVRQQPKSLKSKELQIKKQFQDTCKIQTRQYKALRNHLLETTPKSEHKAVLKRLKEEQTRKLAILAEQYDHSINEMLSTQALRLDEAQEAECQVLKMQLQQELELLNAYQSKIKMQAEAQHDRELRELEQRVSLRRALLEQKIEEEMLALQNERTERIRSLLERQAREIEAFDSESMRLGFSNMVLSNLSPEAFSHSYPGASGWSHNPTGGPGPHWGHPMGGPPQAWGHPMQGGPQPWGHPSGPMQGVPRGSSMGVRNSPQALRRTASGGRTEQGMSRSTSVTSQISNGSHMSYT

Sequence of Dual specificity mitogen-activated protein kinase kinase 1 (Q02750 whole entry): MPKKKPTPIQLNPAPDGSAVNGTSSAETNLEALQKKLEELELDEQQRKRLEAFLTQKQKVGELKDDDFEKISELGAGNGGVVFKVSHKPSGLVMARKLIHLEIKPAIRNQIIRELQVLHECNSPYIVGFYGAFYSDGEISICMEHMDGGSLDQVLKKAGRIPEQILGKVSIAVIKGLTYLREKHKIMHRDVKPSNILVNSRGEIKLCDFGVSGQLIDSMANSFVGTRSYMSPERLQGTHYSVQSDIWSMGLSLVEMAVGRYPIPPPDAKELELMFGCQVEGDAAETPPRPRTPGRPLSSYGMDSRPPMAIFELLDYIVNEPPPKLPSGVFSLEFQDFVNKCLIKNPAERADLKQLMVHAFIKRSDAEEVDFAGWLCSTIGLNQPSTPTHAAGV
Sequence of Tyrosine-protein kinase receptor TYRO3 (Q06418 whole entry): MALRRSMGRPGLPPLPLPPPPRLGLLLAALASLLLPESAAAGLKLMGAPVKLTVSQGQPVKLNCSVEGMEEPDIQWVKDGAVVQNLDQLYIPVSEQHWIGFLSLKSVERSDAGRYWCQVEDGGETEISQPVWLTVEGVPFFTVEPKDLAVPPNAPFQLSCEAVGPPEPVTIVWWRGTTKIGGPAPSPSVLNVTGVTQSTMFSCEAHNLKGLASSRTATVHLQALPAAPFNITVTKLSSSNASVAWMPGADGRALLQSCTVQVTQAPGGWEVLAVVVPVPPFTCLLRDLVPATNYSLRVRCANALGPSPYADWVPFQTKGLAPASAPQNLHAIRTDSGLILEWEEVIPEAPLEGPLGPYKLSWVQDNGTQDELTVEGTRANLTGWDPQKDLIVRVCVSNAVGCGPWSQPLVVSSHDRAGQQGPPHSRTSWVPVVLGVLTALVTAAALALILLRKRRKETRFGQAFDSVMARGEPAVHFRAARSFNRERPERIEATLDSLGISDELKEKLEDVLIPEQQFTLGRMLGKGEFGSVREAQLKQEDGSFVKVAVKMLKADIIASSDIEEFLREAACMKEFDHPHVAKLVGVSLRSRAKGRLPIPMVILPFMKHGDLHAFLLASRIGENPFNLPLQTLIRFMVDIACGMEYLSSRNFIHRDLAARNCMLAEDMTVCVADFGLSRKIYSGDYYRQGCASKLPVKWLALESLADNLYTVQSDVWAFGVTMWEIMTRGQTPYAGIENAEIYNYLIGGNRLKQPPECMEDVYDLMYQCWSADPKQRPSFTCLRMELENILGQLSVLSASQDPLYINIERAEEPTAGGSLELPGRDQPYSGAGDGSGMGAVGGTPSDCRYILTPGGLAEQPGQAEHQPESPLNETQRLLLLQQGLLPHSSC
Sequence of SUMO-activating enzyme (Q9UBE0 whole entry): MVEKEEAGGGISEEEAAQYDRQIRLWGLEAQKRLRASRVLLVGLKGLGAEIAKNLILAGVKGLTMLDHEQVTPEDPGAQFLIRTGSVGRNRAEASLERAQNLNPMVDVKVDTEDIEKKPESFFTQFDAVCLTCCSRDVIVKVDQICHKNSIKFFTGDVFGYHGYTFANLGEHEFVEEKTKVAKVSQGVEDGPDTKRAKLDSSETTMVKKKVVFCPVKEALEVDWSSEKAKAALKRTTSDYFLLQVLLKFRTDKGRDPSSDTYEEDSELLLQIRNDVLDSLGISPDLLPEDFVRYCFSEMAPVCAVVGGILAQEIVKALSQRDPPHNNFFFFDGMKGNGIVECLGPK
Sequence of SUMO-activating enzyme (Q9UBT2 whole entry): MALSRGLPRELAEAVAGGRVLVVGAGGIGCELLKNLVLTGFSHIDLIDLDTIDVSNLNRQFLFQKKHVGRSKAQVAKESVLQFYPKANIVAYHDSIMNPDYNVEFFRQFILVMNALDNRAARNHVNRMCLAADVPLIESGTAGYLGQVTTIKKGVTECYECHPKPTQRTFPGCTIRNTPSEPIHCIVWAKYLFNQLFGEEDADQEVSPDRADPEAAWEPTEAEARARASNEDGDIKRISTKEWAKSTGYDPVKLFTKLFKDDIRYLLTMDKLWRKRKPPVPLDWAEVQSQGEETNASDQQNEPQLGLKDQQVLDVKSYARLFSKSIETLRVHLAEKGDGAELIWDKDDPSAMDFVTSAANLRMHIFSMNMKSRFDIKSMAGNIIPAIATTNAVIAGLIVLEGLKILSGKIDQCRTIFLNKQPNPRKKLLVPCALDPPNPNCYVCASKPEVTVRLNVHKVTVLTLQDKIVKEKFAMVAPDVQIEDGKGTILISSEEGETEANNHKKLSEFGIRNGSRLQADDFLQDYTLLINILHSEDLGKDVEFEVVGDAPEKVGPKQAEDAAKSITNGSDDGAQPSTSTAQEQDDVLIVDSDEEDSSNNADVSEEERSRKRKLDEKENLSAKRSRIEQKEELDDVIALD
Sequence of Mitogen-activated protein kinase kinase kinase kinase 2 (Q12851 whole entry): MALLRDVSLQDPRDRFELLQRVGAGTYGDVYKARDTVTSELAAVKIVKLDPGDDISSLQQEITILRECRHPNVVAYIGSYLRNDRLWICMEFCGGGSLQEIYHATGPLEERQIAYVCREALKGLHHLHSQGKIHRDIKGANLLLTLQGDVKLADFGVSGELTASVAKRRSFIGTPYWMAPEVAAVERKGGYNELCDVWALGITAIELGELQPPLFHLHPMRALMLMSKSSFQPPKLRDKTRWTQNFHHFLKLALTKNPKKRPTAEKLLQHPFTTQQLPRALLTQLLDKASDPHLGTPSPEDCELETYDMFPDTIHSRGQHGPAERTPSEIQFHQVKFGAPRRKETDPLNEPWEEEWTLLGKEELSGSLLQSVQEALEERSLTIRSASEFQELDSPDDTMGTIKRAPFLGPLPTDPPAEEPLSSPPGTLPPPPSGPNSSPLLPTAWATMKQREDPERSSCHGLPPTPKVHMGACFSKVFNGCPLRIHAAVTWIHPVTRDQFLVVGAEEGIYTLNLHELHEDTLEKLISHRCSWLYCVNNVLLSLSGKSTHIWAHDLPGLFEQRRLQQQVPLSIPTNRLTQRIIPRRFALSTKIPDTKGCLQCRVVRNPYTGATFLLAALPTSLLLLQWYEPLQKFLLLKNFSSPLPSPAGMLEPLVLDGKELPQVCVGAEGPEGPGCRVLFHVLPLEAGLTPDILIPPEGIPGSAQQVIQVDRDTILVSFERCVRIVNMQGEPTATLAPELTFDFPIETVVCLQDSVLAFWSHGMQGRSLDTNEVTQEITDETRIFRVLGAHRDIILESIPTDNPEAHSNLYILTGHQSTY
Sequence of Dual specificity protein kinase CLK4 (Q9HAZ1 whole entry): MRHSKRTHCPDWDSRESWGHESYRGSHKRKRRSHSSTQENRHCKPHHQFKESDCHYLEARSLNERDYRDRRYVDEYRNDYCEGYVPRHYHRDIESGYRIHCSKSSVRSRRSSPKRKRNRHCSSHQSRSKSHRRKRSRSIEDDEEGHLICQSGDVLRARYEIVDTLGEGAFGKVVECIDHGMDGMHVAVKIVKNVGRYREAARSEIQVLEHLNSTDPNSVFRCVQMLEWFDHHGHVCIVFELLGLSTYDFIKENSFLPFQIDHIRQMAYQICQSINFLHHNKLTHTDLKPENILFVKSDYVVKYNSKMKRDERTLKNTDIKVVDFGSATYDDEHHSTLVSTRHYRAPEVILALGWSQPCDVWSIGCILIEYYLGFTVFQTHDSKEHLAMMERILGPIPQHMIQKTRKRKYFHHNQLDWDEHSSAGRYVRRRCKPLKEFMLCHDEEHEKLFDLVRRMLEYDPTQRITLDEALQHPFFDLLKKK
Sequence of Glycogen synthase kinase-3 beta (P49841 whole entry): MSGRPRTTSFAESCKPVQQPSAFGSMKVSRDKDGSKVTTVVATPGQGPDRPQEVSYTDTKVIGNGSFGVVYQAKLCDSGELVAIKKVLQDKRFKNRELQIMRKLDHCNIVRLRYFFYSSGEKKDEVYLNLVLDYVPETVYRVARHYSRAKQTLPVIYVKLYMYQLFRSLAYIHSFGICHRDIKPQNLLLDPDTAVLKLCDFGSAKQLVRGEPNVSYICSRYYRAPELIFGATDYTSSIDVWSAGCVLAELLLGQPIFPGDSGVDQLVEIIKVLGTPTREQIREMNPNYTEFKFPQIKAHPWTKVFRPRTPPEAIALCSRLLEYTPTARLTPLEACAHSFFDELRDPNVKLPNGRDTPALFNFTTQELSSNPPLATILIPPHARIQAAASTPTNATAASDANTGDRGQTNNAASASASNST

| SMILES | IC50 [1] | IC50 [2] | IC50 [3] | IC50 (SUMO-activating enzyme) | Ki [4] | Ki [5] | Ki [6] | Ki [7] | Ki [8] | Ki [9] | Ki [10] | Ki [11] | Ki [12] | Ki [13] | Ki [14] | Ki [15] |
| --- | --- | --- | --- | --- | --- | --- | --- | --- | --- | --- | --- | --- | --- | --- | --- | --- |
| O=C(NNc1cc(N2CCCC2)nc(N2CCCC2)n1)c1ccc([N+](=O)[O-])cc1 | 3370 nM (active) | 2120 nM (active) | 1430 nM (active) | 1820 nM (active) |  |  |  |  |  |  |  |  |  |  |  |  |
| O=C(Cc1cccs1)Nc1nc2ccccc2s1 |  |  |  |  | 501 nM (active) | > 3160 nM (inactive) | > 5010 nM (inactive) | 501 nM (active) | 2510 nM (active) | 2000 nM (active) | 1000 nM (active) | > 2510 nM (inactive) | 794 nM (active) | 2000 nM (active) | 398 nM (active) | 6310 nM (active) |
